According to PubChem BioAssay (NCI):
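Dose response: 5 concentrations. Exposure: 48 h. Format: 96-well plates. Endpoint: linear interpolation; highest concentration if not reached. Definition used: TGI = concentration required for complete inhibition of growth.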

Experiments:
Test in all cases: NCI tumour cell line growth inhibition, 48 h
OVCAR-4 ovarian = test system: OVCAR-4 ovarian
SNB-75 CNS = test system: SNB-75 CNS
CAKI-1 renal = test system: CAKI-1 renal
RXF 393 renal = test system: RXF 393 renal
COLO 205 colon = test system: COLO 205 colon
NCI-H522 lung = test system: NCI-H522 lung
ACHN renal = test system: ACHN renal
SK-MEL-5 melanoma = test system: SK-MEL-5 melanoma
OVCAR-5 ovarian = test system: OVCAR-5 ovarian
EKVX NSCLC = test system: EKVX NSCLC
MCF7 breast = test system: MCF7 breast

SMILES	TGI (OVCAR-4 ovarian)	TGI (SNB-75 CNS)	TGI (CAKI-1 renal)	TGI (RXF 393 renal)	TGI (COLO 205 colon)	TGI (NCI-H522 lung)	TGI (ACHN renal)	TGI (SK-MEL-5 melanoma)	TGI (OVCAR-5 ovarian)	TGI (EKVX NSCLC)	TGI (MCF7 breast)
Cc1ccc(Nc2ncnc3sc(SCc4ccccc4)nc23)cc1	> 100 µM	> 100 µM	> 100 µM	> 100 µM	> 100 µM	> 100 µM	> 100 µM	> 100 µM	> 100 µM	> 100 µM	> 100 µM
CC(=O)c1ccc2c(c1)CC1(C2)Cc2cc3c(cc2C1)C(=O)CC3 (stereo not given)	> 73.6 µM	> 100 µM	33.5 µM	17.7 µM	1.66 µM	14.2 µM	35.2 µM	11.9 µM	> 100 µM	> 89.6 µM	26.4 µM
COc1ccccc1NC(=S)N/N=C(/c1ccccc1)c1ccccn1	19.3 µM	24.7 µM	10.2 µM	13.9 µM	0.59 µM	17.3 µM	11.8 µM	6.44 µM	13.2 µM	5.46 µM	3.62 µM
C(=N\NC1=NCCCN1)/c1ccc(-c2cn3cc(/C=N/NC4=NCCCN4)ccc3n2)cc1	> 100 µM	> 100 µM	> 100 µM	> 100 µM	> 100 µM	> 100 µM	> 100 µM	> 100 µM	> 100 µM	> 100 µM	> 100 µM
CC(C)(C)c1cc(C2COC(=O)COCCOCC(=O)OCCOCCO2)cc(C(C)(C)C)c1O (stereo not given)	> 100 µM	49.6 µM	33.4 µM	47 µM	> 100 µM	> 94 µM	37.2 µM	> 100 µM	54.8 µM	> 100 µM	> 100 µM
CCOC(=O)c1cc(-c2ccc(OC)c(OC)c2)cn1C	> 10 µM	> 10 µM	> 10 µM	> 10 µM	> 10 µM	> 10 µM	> 10 µM	> 10 µM	> 10 µM	> 10 µM	> 10 µM
CC1OC(OC2C(CO)OC(O[C@H]3CC[C@@]4(C)C(=CC[C@H]5[C@@H]6C[C@@H]7O[C@](O)(CC[C@@H](C)COC8OC(CO)C(O)C(O)C8O)[C@@H](C)[C@@H]7[C@@]6(C)CC[C@@H]54)C3)C(OC3OC(C)C(O)C(O)C3O)C2O)C(O)C(O)C1O (stereo not given in full)	20.8 µM	3.26 µM	8.61 µM	5.38 µM	6.81 µM	4.41 µM	12.2 µM	11.6 µM	6.76 µM	57.1 µM	5.93 µM
COC(=O)c1ccc(/C=C/C2=CC(=O)C=CC2=O)cc1	42 µM	99.4 µM	30.5 µM	42.2 µM	> 52.5 µM	3.6 µM	32.7 µM	> 52 µM	46 µM	47.5 µM	27.8 µM
OC1(c2ccc(Cl)cc2)c2ccccc2C2=Nc3ccccc3CN21 (stereo not given)	50.6 µM	44 µM	> 100 µM	55.4 µM	> 100 µM	67.2 µM	28.6 µM	> 100 µM	> 100 µM	> 81.6 µM	> 87.7 µM
C=C1C(=O)O[C@H]2C1C[C@@H](O)[C@@]1(C)OC1CC[C@@]1(C)O[C@H]21 (stereo not given in full)	30.3 µM	> 100 µM	34.1 µM	34.4 µM	25.8 µM	20 µM	27 µM	29.6 µM	63.9 µM	36 µM	29 µM
